# Where “and” joins values, the source holds several entries; their conditions need not be identical. Equal entries are not always repeated. Where two headings read alike, the source gives them in different places.
# What was measured:
# Escherichia coli = conditions: cited from earlier work
# Klebsiella pneumoniae = conditions: cited from earlier work
# [1] = test system: Gram positive and Gram-negative pathogens; experiment: Broth microdilution growth inhibition, summary over all tested pathogens; format: cell-based
# Protocol: To test the antimicrobial activity of linezolid and linezolid conjugated with 3FG6P (Lzd-3FG6P) against Gram-positive and Gram-negative pathogens, the pathogens Staphylococcus aureus ATCC 25923, Klebsiella pneumoniae ATCC 35657, Acinetobacter baumannii ATCC BAA1605, Escherichia coli ATCC 25922, Enterobacter cloacae ATCC 13047, Enterobacter aerogenes ATCC13048, and Salmonella typhimurium ATCC 14028 were used. The minimal inhibitory concentration (MIC) was determined using broth microdilution following the instructions of Clinical and Laboratory Standards Institute (CLSI) document M07-A9 (Clinical and Laboratory Standards Institute. 2012. M07-A9. Methods for dilution antimicrobial susceptibility tests for bacteria that grow aerobically: approved standard. 9th ed. Clinical and Laboratory Standards Institute, Wayne, PA). Briefly, these bacterial strains were grown in Muller Hinton broth (MHB) until exponential phage (OD600<1.0). The exponentially grown testing bacteria were diluted to an OD600 of 0.01 in MHB and aliquoted in a 96 well plate. […] The plate was incubated at 37° C. and the growth of bacteria was monitored by measuring OD600 using a Cytation 5 plate reader (BioTek).
# [2] = test system: Staphylococcus epidermidis (MRSE); conditions: cited from earlier work
# Pseudomonas aeruginosa = conditions: cited from earlier work
# Neisseria gonorrhea = conditions: cited from earlier work
# [3] = test system: Acinetobacter baumannii ATCC BAA1605; experiment: MIC by broth microdilution (CLSI M07-A9); format: cell-based; conditions: Muller Hinton broth, 37° C.
# Protocol: (§1) To test the antimicrobial activity of linezolid and linezolid conjugated with 3FG6P (Lzd-3FG6P) against Gram-positive and Gram-negative pathogens, the pathogens Staphylococcus aureus ATCC 25923, Klebsiella pneumoniae ATCC 35657, Acinetobacter baumannii ATCC BAA1605, Escherichia coli ATCC 25922, Enterobacter cloacae ATCC 13047, Enterobacter aerogenes ATCC13048, and Salmonella typhimurium ATCC 14028 were used. The minimal inhibitory concentration (MIC) was determined using broth microdilution following the instructions of Clinical and Laboratory Standards Institute (CLSI) document M07-A9 (Clinical and Laboratory Standards Institute. 2012. M07-A9. Methods for dilution antimicrobial susceptibility tests for bacteria that grow aerobically: approved standard. 9th ed. Clinical and Laboratory Standards Institute, Wayne, PA). Briefly, these bacterial strains were grown in Muller Hinton broth (MHB) until exponential phage (OD600<1.0). The exponentially grown testing bacteria were diluted to an OD600 of 0.01 in MHB and aliquoted in a 96 well plate. Stocks of linezolid (Lzd) and linezolid conjugated with 3FG6P (Lzd-3FG6P) were prepared at 10 mg/ml in DMSO which was diluted by two-fold serial dilutions from 64 μg/ml to 2 μg/ml (final concentration) and added to the 96 well plate. A DMSO control (0 μg/ml in the figures) was included. The plate was incubated at 37° C. and the growth of bacteria was monitored by measuring OD600 using a Cytation 5 plate reader (BioTek).
# [4] = test system: Enterobacter aerogenes ATCC13048; experiment: MIC by broth microdilution (CLSI M07-A9); format: cell-based; conditions: Muller Hinton broth, 37° C.
# Protocol: as §1
# [5] = test system: Escherichia coli ATCC 25922; experiment: MIC by broth microdilution (CLSI M07-A9); format: cell-based; conditions: Muller Hinton broth, 37° C.
# Protocol: as §1
# [6] = test system: Staphylococcus aureus ATCC 25923; experiment: MIC by broth microdilution (CLSI M07-A9); format: cell-based; conditions: Muller Hinton broth, 37° C.
# Protocol: as §1
# [7] = test system: Salmonella typhimurium ATCC 14028; experiment: MIC by broth microdilution (CLSI M07-A9); format: cell-based; conditions: Muller Hinton broth, 37° C.
# Protocol: as §1
# [8] = test system: Klebsiella pneumoniae ATCC 35657; experiment: MIC by broth microdilution (CLSI M07-A9); format: cell-based; conditions: Muller Hinton broth, 37° C.
# Protocol: as §1
# [9] = test system: Enterobacter cloacae ATCC 13047; experiment: MIC by broth microdilution (CLSI M07-A9); format: cell-based; conditions: Muller Hinton broth, 37° C.
# Protocol: as §1
# Acinetobacter spp = conditions: cited from earlier work
# Proteus penneri = conditions: cited from earlier work
# [10] = test system: bioluminescent E. coli strain; experiment: Mouse urinary tract infection with bioluminescent E. coli; format: in vivo, C57BL/6 mice; conditions: 80 mg/kg intraperitoneal at 2, 24 and 48 hours; 72 hours after infection
# Protocol: C57BL/6 mice were transurethrally inoculated with bioluminescent E. coli strain and treated with PBS, linezolid (80 mg/kg), and linezolid conjugated with 3FG6P (80 mg/kg) at 2, 24, and 48 hours after inoculation. 72 hours after inoculation, the progress of the infection was monitored using a IVIS Lumina XR small animal imaging system and the bacterial burden in the kidney and bladder was determined by a plate counting method.
# To test the in vivo antimicrobial activity of linezolid and linezolid conjugated with 3FG6P, clinical E. coli strains were constructed that constitutively express a bioluminescent light signal using pLuxABCDE plasmid. See Karsi A. Lawrence M L. Broad host range fluorescence and bioluminescence expression vectors for Gram-negative bacteria. Plasmid. 2007; 57(3):286-95. Epub 2007/01/09. doi: 10.1016/j.plasmid.2006.11.002. PubMed PMID: 17207855 for real time monitoring of the progress of infections. Six- to eight-week old female C57BL/6 mice were purchased from Harlan laboratory and were housed and maintained according to the protocol approved by the institutional animal care and use committee at Mississippi State University. Animals (n=6/group) were transurethrally infected with 50 μl of bioluminescent E. coli strain suspended in PBS (2×10^9 CFU/ml). Animals were treated with an intraperitoneal injection of linezolid (80 mg/kg), linezolid conjugated with 3FG6P (80 mg/kg) or PBS control at 2, 24, and 48 hours after infection. The progress of the infection was monitored by measuring the bioluminescent light signal using an IVIS Lumina X R small animal imaging system. After 72 hours infection, animals were humanely euthanized and the bladder and kidney samples were collected, homogenized, and serially diluted, and the serial dilutions were plated on blood agar to determine the bacterial burden. A transurethral inoculation of E. coli established persistent infections in the kidney and bladder in the absence of antibiotic treatment (PBS control group). The mean bacterial counts in the kidney and bladder were log10 6.328±0.132 and log10 6.171+0.155 CFU/g, respectively (FIG. 12).
# [11] = test system: vancomycin-resistant Enterococcus (VRE)faecalis and faecium; conditions: cited from earlier work
# [12] = test system: methicillin-resistant Staphylococcus aureus (MRSA); conditions: cited from earlier work
# [13] = test system: Stenotrophomonas maltophilia; conditions: cited from earlier work
# [14] = test system: UhpT expression (HptARS system) in S. aureus LAC strain; experiment: uhpT promoter-LuxABCDE bioluminescent reporter for UhpT expression; format: cell-based, Staphylococcus aureus; conditions: 500 μM in brain heart infusion broth
# Protocol: FIG. 5 illustrates a LuxABCDE reporter system for monitoring expression of the UhpT by measuring bioluminescent light signals and strong and stable induction of UhpT expression by 3FG6P. S. aureus LAC strain harboring the LuxABCDE reporter system was cultured in a brain heart infusion broth supplemented with 500 μM glucose (Glc), glucose-6-phosphate (G6P), and 3-fluoro-glucose-6-phosphate (3FG6P) and the bioluminescent signal was monitored using a Cytation 5.
# To test whether 3FG6P can induce expression of the UhpT, we generated a bioluminescent reporter plasmid in which the promoter region of the uhpT was fused to the promoterless LuxABCDE operon (FIG. 5). See Francis K P, Joh D, Bellinger-Kawahara C, Hawkinson M J, Purchio T F, Contag P R. Monitoring bioluminescent Staphylococcus aureus infections in living mice using a novel luxABCDE construct. Infection and immunity. 2000; 68(6):3594-600. Epub 2000/05/19. PubMed PMID: 10816517; PMCID: PMC97648 and Karsi A, Lawrence M L. Broad host range fluorescence and bioluminescence expression vectors for Gram-negative bacteria. Plasmid. 2007; 57(3):286-95. Epub 2007/01/09. doi: 10.1016/j.plasmid.2006.11.002. PubMed PMID: 17207855 for monitoring of the expression of UhpT by measuring bioluminescent light signals.
# [15] = test system: fosfomycin resistant UTI E. coli isolates harboring the fosA gene; experiment: Growth in BHI broth with fosfomycin, with or without 3FG6P; format: cell-based, Escherichia coli
# Excerpt: (§2) FIGS. 13A to 13D show a comparison of the antimicrobial activity of fosfomycin alone (FIG. 13A) and fosfomycin conjugated with 3FG6P or 4FG6P (FIG. 13B) against a fosfomycin resistant E. coli clinical isolate, and fosfomycin alone (FIG. 13C) and fosfomycin conjugated with 3FG6P or 4FG6P (FIG. 13D) against an S. aureus COL strain. The key in FIG. 13D applies to all graphs of FIGS. 13A-13D.
# (§3) To test whether 3FG6P and 4FG6P can potentiate the efficacy of fosfomycin, clinical fosfomycin resistant UTI E. coli isolates harboring the fosA gene and S. aureus COL strain were obtained. Overnight cultures of these bacteria were grown in brain heart infusion (BHI) broth diluted to 0.5 McFarland turbidity and inoculated into fresh BHI broth supplemented with various concentrations of fosfomycin alone or fosfomycin supplemented with 3FG6P for E. coli or 4FG6P for S. aureus (50 μM).
# [16] = cited from earlier work
# Enterobacteriaceae = conditions: cited from earlier work
# S. aureus COL strain = experiment: Growth in BHI broth with fosfomycin, with or without 4FG6P; format: cell-based, Staphylococcus aureus
# Excerpt: as §2, §3
# [17] = BHI supplemented with 50 μM of 4FG6P
molecule,measurement,setting,value
(S)—N-[[3-[3-fluoro-4-(N-1-piperazinyl)phenyl]-2-oxo-5-oxazolidinyl]methyl]acetamide [Linezolid],antimicrobial activity,Escherichia coli,not active
same,antimicrobial activity,Klebsiella pneumoniae,not active
same,concentration failing to inhibit growth,[1]; Gram-negative pathogens,64 µg/mL
same,MIC90,[2],1 to 4 µg/mL and 1 µg/mL
same,antimicrobial activity,Pseudomonas aeruginosa,not active
same,MIC90,Neisseria gonorrhea,16 µg/mL
same,MIC,[3],>64 µg/mL
same,MIC,[4],>64 µg/mL
same,MIC,[5],>64 µg/mL
same,MIC,[6],<2 µg/mL
same,MIC,[6]; listed as linezolid,less than 2 μg/ml
same,MIC,[7],>64 µg/mL
same,MIC,[8],>64 µg/mL
same,MIC,[9],>64 µg/mL
same,antimicrobial activity,Acinetobacter spp,not active
same,antimicrobial activity,Proteus penneri,not active
same,bacterial counts in the bladder,[10],did not reduce bacterial counts
same,bacterial counts in the kidney,[10],did not reduce bacterial counts
same,MIC90,[11],1 to 4 µg/mL and 2 µg/mL
same,MIC90,[12],1 to 4 µg/mL and 2 µg/mL
same,antimicrobial activity,[13],not active
CC(=O)NC[C@H]1CN(c2ccc(N3CCN(C(=O)CCCOC4OC(COP(=O)(O)O)[C@@H](O)C(F)C4O)CC3)c(F)c2)C(=O)O1 (stereo partly shown) [Linezolid-3FG6P],concentration range inhibiting growth,[1]; both Gram positive and Gram-negative pathogens,2 to 8 µg/mL
same,MIC,"[3]; Acinetobacter baumannii, ATCCBAA1605, read-out: MIC",< 2 µg/mL
same,MIC,"[4]; Klebsiella aerogenes, ATCC13048, read-out: MIC",4 µg/mL
same,MIC,"[5]; Escherichia coli, ATCC25922, read-out: MIC",4 µg/mL
same,MIC,"[6]; Staphylococcus aureus, ATCC25923, read-out: MIC",< 2 µg/mL
same,MIC,"[7]; Salmonella enterica, read-out: MIC",8 µg/mL
same,MIC,"[8]; Klebsiella pneumoniae, ATCC35657, read-out: MIC",< 2 µg/mL
same,MIC,"[9]; Enterobacter cloacae, ATCC13047, read-out: MIC",< 2 µg/mL
same,bacterial counts in the bladder,[10],nearly completely cleared the infection
same,bacterial counts in the kidney,[10],completely cleared the infection
O=C[C@H](O)[C@@H](O)[C@H](O)[C@H](O)COP(=O)(O)O [glucose-6-phosphate],duration of induced bioluminescent light signals,[14],8 h
C[C@@H]1O[C@@H]1P(=O)(O)O [fosfomycin],fosfomycin concentration at which growth was completely inhibited,[15]; BHI supplemented with 50 μM of 3FG6P,≤ 2 µg/mL
same,fosfomycin concentration up to which growth was allowed,"[15]; BHI, fosfomycin alone",up to 128 μg/ml
same,metabolism in the liver,[16]; in vivo,not metabolized in the liver
same,oral bioavailability,[16]; oral administration,30-37%
same,minimum inhibitory concentration (MIC) breakpoint,Enterobacteriaceae,8 to 32 µg/mL
same,fosfomycin concentration at which growth was completely inhibited,S. aureus COL strain; [17],32 µg/mL
same,growth at fosfomycin concentrations lower than 32 μg/ml,S. aureus COL strain; [17],significantly delayed
same,fosfomycin concentration up to which growth was allowed,"S. aureus COL strain; BHI, fosfomycin alone",up to 128 μg/ml
